According to ChEMBL document CHEMBL1201862, “PubChem BioAssay data set” (2004):
Active and inactive are the calls of the source.

Assays:
[1] = cytotoxicity in HEK-293T cells, dose response, cytotoxicity control for TCR NF-kB inhibitor project, luminescence, T-cell screen hits (AID 489026); format: functional, cell-based;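 note: cells exposed to compound about 14 hours before the viability readout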
Fatty acid synthase [2] = molecular target: T1, Fatty acid synthase (Homo sapiens, UniProt P49327); assay: FAS thioesterase domain inhibitors, dose response, biochemical, kinetic fluorescence intensity (AID 624326); format: functional;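 note: rate of fluorescence rise from hydrolysis of a fluorogenic O-methyl fluorescein ester substrate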
Fatty acid synthase [3] = molecular target: T1, Fatty acid synthase; assay: FAS thioesterase domain inhibitors, dose response, biochemical, endpoint fluorescence intensity, uHTS hits (AID 624327); format: functional;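 note: fluorescence from hydrolysis of an O-methyl fluorescein acyl ester substrate by the enzyme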
[4] = molecular target: T2, Long-chain-fatty-acid--AMP ligase FadD28 (Mycobacterium tuberculosis, UniProt P9WQ59); assay: Fluorescence polarization aasay to screen for inhibitors that compete for the binding of FadD28 to a bisubstrate Measured in Biochemical System Using Plate Reader - 2147-01_Inhibitor_Dose_CherryPick_Activity.; format: functional, Mycobacterium tuberculosis H37Rv
T2 sequence (P9WQ59 whole entry): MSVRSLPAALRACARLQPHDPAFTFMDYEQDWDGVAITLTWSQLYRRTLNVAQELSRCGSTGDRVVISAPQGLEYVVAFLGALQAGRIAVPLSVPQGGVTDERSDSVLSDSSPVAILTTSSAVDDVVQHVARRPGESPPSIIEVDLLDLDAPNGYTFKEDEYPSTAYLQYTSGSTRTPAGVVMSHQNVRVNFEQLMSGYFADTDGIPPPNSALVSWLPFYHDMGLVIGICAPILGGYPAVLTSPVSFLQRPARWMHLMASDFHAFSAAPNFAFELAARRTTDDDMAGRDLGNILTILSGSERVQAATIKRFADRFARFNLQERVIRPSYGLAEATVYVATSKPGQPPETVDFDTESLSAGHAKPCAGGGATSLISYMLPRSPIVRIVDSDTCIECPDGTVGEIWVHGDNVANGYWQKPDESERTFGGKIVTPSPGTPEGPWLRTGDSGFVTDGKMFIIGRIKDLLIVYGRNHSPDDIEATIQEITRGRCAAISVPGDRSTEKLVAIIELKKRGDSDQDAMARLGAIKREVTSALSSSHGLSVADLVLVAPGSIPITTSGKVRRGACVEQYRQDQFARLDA

Streptococcus = assay: Group A Streptococcus viability loss, dose response, counter-screen for streptokinase expression inhibitor project, luminescence, BacTiterGlo (AID 1915); format: functional, organism-based;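 note: potency for reduction of bacterial viability or growth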
[5] = molecular target: Dual specificity tyrosine-phosphorylation-regulated kinase 1A (Rattus norvegicus, UniProt Q63470); format: biochemical, Homo sapiens
[6] = HEp-2 cell cytotoxicity, dose response, cytotoxicity control for RSV inhibitor project, HTS (AID 2410); format: functional; details: human respiratory syncytial virus
Streptokinase A = molecular target: T3, Streptokinase A (Streptococcus pyogenes serotype M1, UniProt P10520); assay: S. pyogenes streptokinase expression inhibitors, potency, dose response, plasminogen activation absorbance, OD405 (AID 1914); format: functional, Streptococcus pyogenes M1 GAS;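 note: secreted streptokinase activity via plasminogen activation per viability signal from cell pellet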
T3 sequence (P10520 whole entry): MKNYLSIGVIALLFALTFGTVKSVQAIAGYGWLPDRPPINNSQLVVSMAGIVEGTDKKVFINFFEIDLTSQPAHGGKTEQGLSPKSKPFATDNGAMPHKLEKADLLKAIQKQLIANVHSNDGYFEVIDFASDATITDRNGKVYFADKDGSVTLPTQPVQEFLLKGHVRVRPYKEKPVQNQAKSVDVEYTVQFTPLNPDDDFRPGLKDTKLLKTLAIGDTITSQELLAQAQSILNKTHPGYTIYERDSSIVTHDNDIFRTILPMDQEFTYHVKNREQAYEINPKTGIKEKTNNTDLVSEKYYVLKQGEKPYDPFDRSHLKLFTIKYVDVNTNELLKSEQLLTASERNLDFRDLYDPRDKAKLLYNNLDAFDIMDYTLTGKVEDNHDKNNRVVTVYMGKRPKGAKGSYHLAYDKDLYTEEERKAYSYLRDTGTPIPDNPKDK

[7] = test system: Streptococcus sp. 'group A'; assay: growth inhibition of control SK(-) GAS strain, dose response, counter-screen for streptokinase expression inhibitor project, luminescence, kanamycin, BacTiterGlo, confirmation (AID 1900); format: functional, organism-based
[8] = molecular target: T4, Type-1 angiotensin II receptor (Homo sapiens, UniProt P30556); assay: AT1 receptor antagonists, dose response, selectivity assay for APJ receptor antagonist project, cell-based, uHTS hits (AID 463214); format: functional;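 note: antagonist potency against angiotensin II stimulated AT1 response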
T4 sequence (P30556 whole entry): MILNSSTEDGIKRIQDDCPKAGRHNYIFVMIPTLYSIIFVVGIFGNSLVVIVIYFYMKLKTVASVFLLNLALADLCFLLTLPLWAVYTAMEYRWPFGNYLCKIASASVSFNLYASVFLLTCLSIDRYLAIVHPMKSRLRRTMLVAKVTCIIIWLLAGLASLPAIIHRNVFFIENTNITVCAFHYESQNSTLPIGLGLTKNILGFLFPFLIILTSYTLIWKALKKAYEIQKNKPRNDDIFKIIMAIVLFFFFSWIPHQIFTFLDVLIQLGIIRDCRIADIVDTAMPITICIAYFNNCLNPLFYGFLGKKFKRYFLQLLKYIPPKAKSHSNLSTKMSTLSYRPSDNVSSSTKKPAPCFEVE

[9] = molecular target: T5, Replicative DNA helicase DnaB (Mycobacterium tuberculosis, UniProt P9WMR3); assay: DnaB intein splicing inhibitors, dose response, biochemical, cell-free fluorescence (AID 449749); format: functional
T5 sequence (P9WMR3 whole entry): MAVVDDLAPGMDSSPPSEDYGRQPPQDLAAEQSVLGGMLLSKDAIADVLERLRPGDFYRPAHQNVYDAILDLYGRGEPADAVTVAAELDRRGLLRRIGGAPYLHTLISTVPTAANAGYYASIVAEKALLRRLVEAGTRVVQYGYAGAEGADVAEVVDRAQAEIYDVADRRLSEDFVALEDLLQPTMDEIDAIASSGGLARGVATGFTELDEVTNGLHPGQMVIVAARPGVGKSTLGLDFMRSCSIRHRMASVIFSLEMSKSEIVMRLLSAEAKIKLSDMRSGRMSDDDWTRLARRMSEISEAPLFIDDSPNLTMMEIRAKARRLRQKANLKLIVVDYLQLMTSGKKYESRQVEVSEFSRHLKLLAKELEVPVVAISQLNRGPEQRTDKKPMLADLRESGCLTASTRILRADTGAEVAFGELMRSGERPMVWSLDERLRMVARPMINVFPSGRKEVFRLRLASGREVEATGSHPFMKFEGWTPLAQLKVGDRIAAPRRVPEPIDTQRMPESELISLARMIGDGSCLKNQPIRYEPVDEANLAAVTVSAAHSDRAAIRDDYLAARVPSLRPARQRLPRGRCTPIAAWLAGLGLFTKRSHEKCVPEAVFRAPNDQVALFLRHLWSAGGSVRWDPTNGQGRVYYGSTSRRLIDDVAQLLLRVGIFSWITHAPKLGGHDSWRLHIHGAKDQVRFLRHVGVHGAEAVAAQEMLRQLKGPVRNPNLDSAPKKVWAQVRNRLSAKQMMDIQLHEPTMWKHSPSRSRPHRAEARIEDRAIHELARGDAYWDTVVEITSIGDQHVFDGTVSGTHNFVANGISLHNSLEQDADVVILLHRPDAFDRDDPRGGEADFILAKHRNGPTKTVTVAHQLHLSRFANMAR

Protein RecA = molecular target: T6, Protein RecA (Mycobacterium tuberculosis, UniProt P9WHJ3); assay: Fluorescence Cell-Free Homogeneous Dose Retest to Identify Inhibitors of RecA-Intein Splicing Activity. [Related pubchem assays (depositor defined):AID2097, AID2223, AID489010, AID492950]; format: functional
T6 sequence (P9WHJ3 whole entry): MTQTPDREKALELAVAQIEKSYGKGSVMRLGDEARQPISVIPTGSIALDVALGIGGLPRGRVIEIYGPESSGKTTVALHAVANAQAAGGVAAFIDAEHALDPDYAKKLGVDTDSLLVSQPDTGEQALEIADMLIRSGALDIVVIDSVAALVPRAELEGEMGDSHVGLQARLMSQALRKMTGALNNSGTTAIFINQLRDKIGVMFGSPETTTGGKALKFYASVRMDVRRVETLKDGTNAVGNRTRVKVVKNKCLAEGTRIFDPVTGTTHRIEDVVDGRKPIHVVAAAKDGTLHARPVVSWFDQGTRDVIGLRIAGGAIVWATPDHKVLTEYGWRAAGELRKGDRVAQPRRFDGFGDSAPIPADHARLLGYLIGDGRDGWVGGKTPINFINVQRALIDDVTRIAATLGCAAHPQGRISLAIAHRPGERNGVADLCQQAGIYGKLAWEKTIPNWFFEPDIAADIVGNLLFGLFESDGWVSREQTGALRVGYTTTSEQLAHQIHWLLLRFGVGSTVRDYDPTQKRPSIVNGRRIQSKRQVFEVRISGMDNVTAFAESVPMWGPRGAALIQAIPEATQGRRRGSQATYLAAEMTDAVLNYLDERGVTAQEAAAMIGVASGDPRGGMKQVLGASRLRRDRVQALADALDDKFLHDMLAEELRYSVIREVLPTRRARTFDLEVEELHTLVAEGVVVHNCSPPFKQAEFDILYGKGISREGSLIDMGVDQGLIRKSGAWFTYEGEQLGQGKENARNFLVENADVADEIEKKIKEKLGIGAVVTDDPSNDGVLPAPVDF

Beta-galactosidase = Beta-galactosidase (Escherichia coli, UniProt Q8VNN2); assay: PubChem AID 485352; format: functional
Sequence of Beta-galactosidase (Q8VNN2 whole entry): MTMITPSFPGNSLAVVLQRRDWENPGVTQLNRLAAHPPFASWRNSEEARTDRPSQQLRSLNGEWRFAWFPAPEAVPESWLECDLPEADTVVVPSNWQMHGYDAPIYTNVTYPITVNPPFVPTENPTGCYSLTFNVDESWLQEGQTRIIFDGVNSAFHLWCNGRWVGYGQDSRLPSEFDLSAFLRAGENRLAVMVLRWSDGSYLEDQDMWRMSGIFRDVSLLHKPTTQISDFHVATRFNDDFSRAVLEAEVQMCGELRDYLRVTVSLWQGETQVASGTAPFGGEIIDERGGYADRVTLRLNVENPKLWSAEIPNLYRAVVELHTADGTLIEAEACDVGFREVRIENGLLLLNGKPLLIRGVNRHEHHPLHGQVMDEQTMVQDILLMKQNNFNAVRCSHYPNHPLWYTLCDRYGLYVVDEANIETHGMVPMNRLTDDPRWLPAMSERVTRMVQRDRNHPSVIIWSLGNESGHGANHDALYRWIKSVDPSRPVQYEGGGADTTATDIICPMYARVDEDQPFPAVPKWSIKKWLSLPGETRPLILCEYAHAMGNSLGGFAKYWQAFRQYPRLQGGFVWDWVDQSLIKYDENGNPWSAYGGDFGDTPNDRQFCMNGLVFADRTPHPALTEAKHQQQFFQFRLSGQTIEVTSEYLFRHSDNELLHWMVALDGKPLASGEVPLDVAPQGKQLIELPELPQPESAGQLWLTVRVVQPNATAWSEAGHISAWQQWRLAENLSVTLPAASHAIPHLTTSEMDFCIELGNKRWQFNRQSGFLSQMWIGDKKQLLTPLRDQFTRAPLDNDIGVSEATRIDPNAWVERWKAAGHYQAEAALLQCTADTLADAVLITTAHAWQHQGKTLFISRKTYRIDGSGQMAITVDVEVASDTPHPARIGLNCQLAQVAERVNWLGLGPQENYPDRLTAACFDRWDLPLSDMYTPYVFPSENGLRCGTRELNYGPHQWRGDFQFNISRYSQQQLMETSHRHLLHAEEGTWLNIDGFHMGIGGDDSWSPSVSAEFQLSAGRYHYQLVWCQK

T1 sequence (P49327 whole entry, the tested form may be a part): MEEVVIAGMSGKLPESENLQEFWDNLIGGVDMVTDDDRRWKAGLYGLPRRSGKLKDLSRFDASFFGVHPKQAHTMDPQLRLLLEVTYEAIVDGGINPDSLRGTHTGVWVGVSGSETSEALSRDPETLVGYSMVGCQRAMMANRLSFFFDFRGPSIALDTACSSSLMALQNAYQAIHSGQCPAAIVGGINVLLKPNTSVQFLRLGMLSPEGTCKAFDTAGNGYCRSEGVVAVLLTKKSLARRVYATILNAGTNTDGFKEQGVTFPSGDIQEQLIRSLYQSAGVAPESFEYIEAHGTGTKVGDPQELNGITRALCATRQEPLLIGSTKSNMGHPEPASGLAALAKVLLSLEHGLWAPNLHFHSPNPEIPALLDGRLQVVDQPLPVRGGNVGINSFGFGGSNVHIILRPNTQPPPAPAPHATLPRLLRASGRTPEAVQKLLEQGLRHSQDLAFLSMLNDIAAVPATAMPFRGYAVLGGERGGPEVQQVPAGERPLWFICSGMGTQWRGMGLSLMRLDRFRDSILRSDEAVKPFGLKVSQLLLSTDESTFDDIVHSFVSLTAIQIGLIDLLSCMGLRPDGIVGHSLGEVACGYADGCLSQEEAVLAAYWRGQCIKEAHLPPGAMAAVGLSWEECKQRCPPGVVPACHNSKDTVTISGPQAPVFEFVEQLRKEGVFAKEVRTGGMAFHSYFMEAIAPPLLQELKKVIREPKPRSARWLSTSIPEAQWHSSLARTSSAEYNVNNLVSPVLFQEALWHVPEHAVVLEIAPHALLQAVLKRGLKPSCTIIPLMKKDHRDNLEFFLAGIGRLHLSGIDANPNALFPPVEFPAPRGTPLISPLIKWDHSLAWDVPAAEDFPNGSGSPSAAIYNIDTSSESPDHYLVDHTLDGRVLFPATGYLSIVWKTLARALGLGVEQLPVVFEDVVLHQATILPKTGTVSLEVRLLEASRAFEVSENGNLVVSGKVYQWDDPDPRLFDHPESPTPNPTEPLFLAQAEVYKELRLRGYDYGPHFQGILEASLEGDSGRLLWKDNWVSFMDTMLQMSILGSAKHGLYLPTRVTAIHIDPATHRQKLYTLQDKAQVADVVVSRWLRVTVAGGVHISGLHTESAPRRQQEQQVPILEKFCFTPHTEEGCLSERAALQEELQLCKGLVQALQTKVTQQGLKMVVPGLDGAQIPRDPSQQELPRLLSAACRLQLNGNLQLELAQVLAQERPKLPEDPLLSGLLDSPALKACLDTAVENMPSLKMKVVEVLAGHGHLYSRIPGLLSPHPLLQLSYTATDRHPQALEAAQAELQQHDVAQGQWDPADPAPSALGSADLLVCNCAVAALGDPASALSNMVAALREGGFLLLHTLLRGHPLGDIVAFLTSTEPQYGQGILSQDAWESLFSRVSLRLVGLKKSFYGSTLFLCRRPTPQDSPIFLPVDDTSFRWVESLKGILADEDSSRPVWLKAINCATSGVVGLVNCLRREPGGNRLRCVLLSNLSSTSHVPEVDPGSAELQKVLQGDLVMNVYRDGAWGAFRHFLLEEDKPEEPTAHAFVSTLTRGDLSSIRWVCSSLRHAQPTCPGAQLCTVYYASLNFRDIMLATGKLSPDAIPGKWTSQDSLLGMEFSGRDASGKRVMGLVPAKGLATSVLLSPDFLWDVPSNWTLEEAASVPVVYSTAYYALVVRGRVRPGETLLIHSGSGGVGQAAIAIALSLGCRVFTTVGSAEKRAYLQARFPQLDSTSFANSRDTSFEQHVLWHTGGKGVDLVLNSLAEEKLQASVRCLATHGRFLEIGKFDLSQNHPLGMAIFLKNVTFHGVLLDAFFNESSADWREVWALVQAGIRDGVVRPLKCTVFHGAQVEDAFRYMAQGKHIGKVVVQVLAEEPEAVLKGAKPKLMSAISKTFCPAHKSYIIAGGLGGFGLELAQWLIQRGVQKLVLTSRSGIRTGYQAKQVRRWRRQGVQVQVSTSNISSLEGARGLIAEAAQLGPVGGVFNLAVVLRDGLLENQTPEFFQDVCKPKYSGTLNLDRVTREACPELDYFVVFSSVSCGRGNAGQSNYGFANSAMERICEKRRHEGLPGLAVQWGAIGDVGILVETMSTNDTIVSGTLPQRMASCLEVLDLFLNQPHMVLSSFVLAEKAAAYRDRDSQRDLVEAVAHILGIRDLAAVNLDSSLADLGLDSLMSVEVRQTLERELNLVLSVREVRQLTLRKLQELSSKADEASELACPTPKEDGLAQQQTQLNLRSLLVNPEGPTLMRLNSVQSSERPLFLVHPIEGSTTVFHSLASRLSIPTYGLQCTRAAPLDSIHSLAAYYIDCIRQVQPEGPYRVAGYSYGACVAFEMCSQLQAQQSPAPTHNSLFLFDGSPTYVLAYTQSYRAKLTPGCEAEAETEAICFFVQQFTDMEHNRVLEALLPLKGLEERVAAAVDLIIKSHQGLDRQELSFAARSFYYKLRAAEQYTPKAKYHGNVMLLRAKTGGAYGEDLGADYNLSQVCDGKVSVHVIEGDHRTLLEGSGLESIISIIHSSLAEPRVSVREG

COc1ccc(OC)c(COC(=O)c2cc([N+](=O)[O-])ccc2N2CCOCC2)c1
IC50 [1]: > 80 µM (inactive)
IC50 (Fatty acid synthase [2]): 15.4 µM (active)
IC50 (Fatty acid synthase [3]): 11.4 µM (active)

O=C(CN1C(=O)S/C(=C\c2cc(Cl)c(O)c(Cl)c2)C1=O)Nc1ccccc1
AC50 [4]: 3.49 µM (active)

COc1ccc2c(c1)C(=NNc1ccc(C(=O)O)cc1)c1cc(OC)ccc1-2
EC50 (Streptococcus): 12.4 µM (active)
AC50 [4]: 88 µM (active)
AC50 [5]: 0.02 µM (active)
CC50 [6]: 13.7 µM (active)
EC50 (Streptokinase A): > 150 µM (not active)
IC50 (cells): 10.8 µM (active)
EC50 [7]: 6.28 µM (active)

O=C(N/C(=C\c1ccc(Br)cc1)C(=O)N1CCOCC1)c1ccc([N+](=O)[O-])cc1
IC50 (Fatty acid synthase [2]): 0.286 µM (active)
IC50 (Fatty acid synthase [3]): 0.262 µM (active)

CCC(C(=O)NC1CCCCC1)n1c(SCc2ccccc2F)nc2ccncc21 (stereo not drawn)
AC50 [4]: > 100 µM (inactive)

Cc1cccc2cc(/C=N/Nc3ccc(C(=O)O)cc3)c(Cl)nc12
IC50 (Fatty acid synthase [2]): 18.3 µM (active)
IC50 (Fatty acid synthase [3]): 27.4 µM (inactive)

CCCSc1cc(NCCOC(=O)CCC)c([N+](=O)[O-])c2nonc12
IC50 [8]: 11 µM (active)
AC50 [9]: 55 µM (active)
CC50 [6]: 14.8 µM (active)
EC50 (Protein RecA): 4.48 µM (active)
EC50 (Beta-galactosidase): > 40 µM (inactive)
IC50 (Fatty acid synthase [2]): 16.5 µM (active)
IC50 (Fatty acid synthase [3]): 16.3 µM (active)
